Test system: subjects with moderately to severely active RA who have an inadequate response to methotrexate (MTX)
Assay: Study 1 (add-on to MTX) - Subject VAS mean changes (ACR patient assessment)
Format: in vivo, human
Experimental: The scale is 100 mm, the decrease in mm is shown. […] (dotted line), 100 mg q.d. (dashed line) or 200 mg q.d. (dark solid line). […] The results shown in the figures are calculated using Last-Observation-Carried-Forward (LOCF), which handles missing data by assigning the value recorded at the patient's last visit to all subsequent missed visits.
Double-blind, placebo-controlled add on study in subjects with moderately to severely active RA who have an inadequate response to methotrexate (MTX) (oral or parenteral).
595 subjects randomized to one of 6 dose regimens of Compound 1 (dosed as [Compound 1:HCl:3H2O]) (3 dose levels administered either once or twice daily) or placebo on top of each subject's stable dose of MTX.
Compound 1 (dosed as [Compound 1:HCl:3H2O]) is dosed for twelve weeks once daily (q.d.) (50 mg, 100 mg or 200 mg) or twice daily (b.i.d.) (25 mg, 50 mg or 100 mg); or placebo.
At Week 12, the subjects on placebo who have not achieved 20% improvement in swollen joint count (SJC66) and tender joint count (TJC68) are re-randomized automatically to receive Compound 1 (dosed as a [Compound 1:HCl:3H2O]) either at 100 mg q.d. or 50 mg b.i.d. doses in a blinded fashion; subjects on 50 mg q.d. who have not achieved 20% improvement in SJC66 and TJC68 will be assigned to 100 mg q.d. and subjects on 25 mg b.i.d. that have not achieved a 20% improvement in SJC66 and TJC68 will be assigned to 50 mg b.i.d. Subjects who switch treatment at week 12 are handled as if they discontinued at week 12 for the purpose of statistical analysis, whereas subjects in the other groups will maintain their randomized treatment until Week 24.
Firstly, the patient is asked to make a vertical mark on a 100 mm Visual Analog Scale (VAS) corresponding to their general health or global disease activity on a touch screen to measure the VAS value, which is used in the formula below.
The American College of Rheumatology (ACR) composite score, which evaluates clinical improvement relative to an initial assessment, is a commonly accepted efficacy end point for clinical trials in patients with rheumatoid arthritis. The ACR score correspond to a percentage improvement in pre-set parameters, and therefore measures the evolution of the disease in a patient. For example, ACR20 denotes at least 20% improvement in tender and swollen joint counts and in three of the following end points: global assessment by the patient, global assessment by the doctor, C reactive protein (CRP), patient's pain Visual Analogue Scale and Health Assessment Questionnaire Score. The number of swollen joints, ESR and CRP correlate with radiographic progression of joint damage, whereas tender joint counts, as well as global assessments by doctors and patients, and patients' reports of pain, are sensitive to change in clinical outcomes. Physical function, as assessed by the Health Assessment Questionnaire Score, is a potent predictor of the risk of disability in rheumatoid arthritis (Felson and American College of Rheumatology Committee to Reevaluate Improvement Criteria, 2007; Felson et al., 1993).

SMILES: O=C(Nc1nc2cccc(-c3ccc(CN4CCS(=O)(=O)CC4)cc3)n2n1)C1CC1 [Compound 1, cyclopropanecarboxylic acid {5-[4-(1,1-dioxo-thiomorpholin-4-ylmethyl)-phenyl]-[1,2,4]triazolo[1,5-a]pyridin-2-yl}-amide]
- Subject VAS mean changes (ACR patient assessment) (50 mg q.d., week 0, LOCF, 24 weeks results): 0.0
- Subject VAS mean changes (ACR patient assessment) (50 mg q.d., week 2, LOCF, 24 weeks results): −15.5
- Subject VAS mean changes (ACR patient assessment) (50 mg q.d., week 4, LOCF, 24 weeks results): −20.9
- Subject VAS mean changes (ACR patient assessment) (50 mg q.d., week 8, LOCF, 24 weeks results): −26.4
- Subject VAS mean changes (ACR patient assessment) (50 mg q.d., week 12, LOCF, 24 weeks results): −25.2
- Subject VAS mean changes (ACR patient assessment) (50 mg q.d., week 16, LOCF, 24 weeks results): −27.7
- Subject VAS mean changes (ACR patient assessment) (50 mg q.d., week 20, LOCF, 24 weeks results): −28.1
- Subject VAS mean changes (ACR patient assessment) (50 mg q.d., week 24, LOCF, 24 weeks results): −29.4
- Subject VAS mean changes (ACR patient assessment) (50 mg q.d., week 0, LOCF, 12 weeks results): 0.0
- Subject VAS mean changes (ACR patient assessment) (50 mg q.d., week 1, LOCF, 12 weeks results): −11.2
- Subject VAS mean changes (ACR patient assessment) (50 mg q.d., week 2, LOCF, 12 weeks results): −15.5
- Subject VAS mean changes (ACR patient assessment) (50 mg q.d., week 4, LOCF, 12 weeks results): −20.9
- Subject VAS mean changes (ACR patient assessment) (50 mg q.d., week 8, LOCF, 12 weeks results): −26.4
- Subject VAS mean changes (ACR patient assessment) (50 mg q.d., week 12, LOCF, 12 weeks results): −25.2
- Subject VAS mean changes (ACR patient assessment) (100 mg q.d., week 0, LOCF, 24 weeks results): 0.0
- Subject VAS mean changes (ACR patient assessment) (100 mg q.d., week 2, LOCF, 24 weeks results): −20.9
- Subject VAS mean changes (ACR patient assessment) (100 mg q.d., week 4, LOCF, 24 weeks results): −24.4
- Subject VAS mean changes (ACR patient assessment) (100 mg q.d., week 8, LOCF, 24 weeks results): −29.8
- Subject VAS mean changes (ACR patient assessment) (100 mg q.d., week 12, LOCF, 24 weeks results): −29.1
- Subject VAS mean changes (ACR patient assessment) (100 mg q.d., week 16, LOCF, 24 weeks results): −31.7
- Subject VAS mean changes (ACR patient assessment) (100 mg q.d., week 20, LOCF, 24 weeks results): −35.1
- Subject VAS mean changes (ACR patient assessment) (100 mg q.d., week 24, LOCF, 24 weeks results): −34.4
- Subject VAS mean changes (ACR patient assessment) (100 mg q.d., week 0, LOCF, 12 weeks results): 0.0
- Subject VAS mean changes (ACR patient assessment) (100 mg q.d., week 1, LOCF, 12 weeks results): −13.2
- Subject VAS mean changes (ACR patient assessment) (100 mg q.d., week 2, LOCF, 12 weeks results): −20.8
- Subject VAS mean changes (ACR patient assessment) (100 mg q.d., week 4, LOCF, 12 weeks results): −24.4
- Subject VAS mean changes (ACR patient assessment) (100 mg q.d., week 8, LOCF, 12 weeks results): −29.8
- Subject VAS mean changes (ACR patient assessment) (100 mg q.d., week 12, LOCF, 12 weeks results): −29.1
- Subject VAS mean changes (ACR patient assessment) (200 mg q.d., week 0, LOCF, 24 weeks results): 0.0
- Subject VAS mean changes (ACR patient assessment) (200 mg q.d., week 2, LOCF, 24 weeks results): −21.8
- Subject VAS mean changes (ACR patient assessment) (200 mg q.d., week 4, LOCF, 24 weeks results): −24.9
- Subject VAS mean changes (ACR patient assessment) (200 mg q.d., week 8, LOCF, 24 weeks results): −29.6
- Subject VAS mean changes (ACR patient assessment) (200 mg q.d., week 12, LOCF, 24 weeks results): −34.2
- Subject VAS mean changes (ACR patient assessment) (200 mg q.d., week 16, LOCF, 24 weeks results): −32.9
- Subject VAS mean changes (ACR patient assessment) (200 mg q.d., week 20, LOCF, 24 weeks results): −33.0
- Subject VAS mean changes (ACR patient assessment) (200 mg q.d., week 24, LOCF, 24 weeks results): −34.9
- Subject VAS mean changes (ACR patient assessment) (200 mg q.d., week 0, LOCF, 12 weeks results): 0.0
- Subject VAS mean changes (ACR patient assessment) (200 mg q.d., week 1, LOCF, 12 weeks results): −16.7
- Subject VAS mean changes (ACR patient assessment) (200 mg q.d., week 2, LOCF, 12 weeks results): −21.8
- Subject VAS mean changes (ACR patient assessment) (200 mg q.d., week 4, LOCF, 12 weeks results): −25.2
- Subject VAS mean changes (ACR patient assessment) (200 mg q.d., week 8, LOCF, 12 weeks results): −29.6
- Subject VAS mean changes (ACR patient assessment) (200 mg q.d., week 12, LOCF, 12 weeks results): −34.0
- Subject VAS mean changes (ACR patient assessment) (2 × 25 mg b.i.d., week 0, LOCF, 12 weeks results): 0.0
- Subject VAS mean changes (ACR patient assessment) (2 × 25 mg b.i.d., week 0, LOCF, 24 weeks results): 0.0
- Subject VAS mean changes (ACR patient assessment) (2 × 25 mg b.i.d., week 1, LOCF, 12 weeks results): −8.2
- Subject VAS mean changes (ACR patient assessment) (2 × 25 mg b.i.d., week 2, LOCF, 12 weeks results): −11.7
- Subject VAS mean changes (ACR patient assessment) (2 × 25 mg b.i.d., week 2, LOCF, 24 weeks results): −11.7
- Subject VAS mean changes (ACR patient assessment) (2 × 25 mg b.i.d., week 4, LOCF, 12 weeks results): −16.0
- Subject VAS mean changes (ACR patient assessment) (2 × 25 mg b.i.d., week 4, LOCF, 24 weeks results): −16.0
- Subject VAS mean changes (ACR patient assessment) (2 × 25 mg b.i.d., week 8, LOCF, 12 weeks results): −22.2
- Subject VAS mean changes (ACR patient assessment) (2 × 25 mg b.i.d., week 8, LOCF, 24 weeks results): −22.2
- Subject VAS mean changes (ACR patient assessment) (2 × 25 mg b.i.d., week 12, LOCF, 12 weeks results): −25.2
- Subject VAS mean changes (ACR patient assessment) (2 × 25 mg b.i.d., week 12, LOCF, 24 weeks results): −25.2
- Subject VAS mean changes (ACR patient assessment) (2 × 25 mg b.i.d., week 16, LOCF, 24 weeks results): −25.5
- Subject VAS mean changes (ACR patient assessment) (2 × 25 mg b.i.d., week 20, LOCF, 24 weeks results): −25.6
- Subject VAS mean changes (ACR patient assessment) (2 × 25 mg b.i.d., week 24, LOCF, 24 weeks results): −27.3
- Subject VAS mean changes (ACR patient assessment) (2 × 50 mg b.i.d., week 0, LOCF, 12 weeks results): 0.0
- Subject VAS mean changes (ACR patient assessment) (2 × 50 mg b.i.d., week 1, LOCF, 12 weeks results): −8.8
- Subject VAS mean changes (ACR patient assessment) (2 × 50 mg b.i.d., week 2, LOCF, 12 weeks results): −13.6
- Subject VAS mean changes (ACR patient assessment) (2 × 50 mg b.i.d., week 2, LOCF, 24 weeks results): −13.8
- Subject VAS mean changes (ACR patient assessment) (2 × 50 mg b.i.d., week 4, LOCF, 12 weeks results): −16.9
- Subject VAS mean changes (ACR patient assessment) (2 × 50 mg b.i.d., week 4, LOCF, 24 weeks results): −16.9
- Subject VAS mean changes (ACR patient assessment) (2 × 50 mg b.i.d., week 8, LOCF, 12 weeks results): −21.0
- Subject VAS mean changes (ACR patient assessment) (2 × 50 mg b.i.d., week 8, LOCF, 24 weeks results): −21.0
- Subject VAS mean changes (ACR patient assessment) (2 × 50 mg b.i.d., week 12, LOCF, 12 weeks results): −27.0
- Subject VAS mean changes (ACR patient assessment) (2 × 50 mg b.i.d., week 12, LOCF, 24 weeks results): −27.0
- Subject VAS mean changes (ACR patient assessment) (2 × 50 mg b.i.d., week 16, LOCF, 24 weeks results): −26.3
- Subject VAS mean changes (ACR patient assessment) (2 × 50 mg b.i.d., week 20, LOCF, 24 weeks results): −29.7
- Subject VAS mean changes (ACR patient assessment) (2 × 50 mg b.i.d., week 24, LOCF, 24 weeks results): −28.1
- Subject VAS mean changes (ACR patient assessment) (2 × 100 mg b.i.d., week 0, LOCF, 12 weeks results): 0.0
- Subject VAS mean changes (ACR patient assessment) (2 × 100 mg b.i.d., week 1, LOCF, 12 weeks results): −20.0
- Subject VAS mean changes (ACR patient assessment) (2 × 100 mg b.i.d., week 2, LOCF, 12 weeks results): −25.5
- Subject VAS mean changes (ACR patient assessment) (2 × 100 mg b.i.d., week 2, LOCF, 24 weeks results): −25.5
- Subject VAS mean changes (ACR patient assessment) (2 × 100 mg b.i.d., week 4, LOCF, 12 weeks results): −28.6
- Subject VAS mean changes (ACR patient assessment) (2 × 100 mg b.i.d., week 4, LOCF, 24 weeks results): −28.2
- Subject VAS mean changes (ACR patient assessment) (2 × 100 mg b.i.d., week 8, LOCF, 12 weeks results): −32.8
- Subject VAS mean changes (ACR patient assessment) (2 × 100 mg b.i.d., week 8, LOCF, 24 weeks results): −33.0
- Subject VAS mean changes (ACR patient assessment) (2 × 100 mg b.i.d., week 12, LOCF, 12 weeks results): −35.6
- Subject VAS mean changes (ACR patient assessment) (2 × 100 mg b.i.d., week 12, LOCF, 24 weeks results): −35.6
- Subject VAS mean changes (ACR patient assessment) (2 × 100 mg b.i.d., week 16, LOCF, 24 weeks results): −37.9
- Subject VAS mean changes (ACR patient assessment) (2 × 100 mg b.i.d., week 20, LOCF, 24 weeks results): −39.1
- Subject VAS mean changes (ACR patient assessment) (2 × 100 mg b.i.d., week 24, LOCF, 24 weeks results): −39.1
